The record followed here is publication PMC8843171 (Journal of Enzyme Inhibition and Medicinal Chemistry, 2022).

Holding throughout (experiment): stopped-flow CO2 hydrase assay
Type in all cases: biochemical
Settings in all cases: read-out: [drawing 1] / 1

For one test, the target named is T1, hCA VII (Homo sapiens, UniProt P43166).
T1 construct: gene CA7; recombinant, in-house
The text has this:
stopped-flow CO2 hydrase assay on hCA VII

For the next test, the target named is T2, hCA VA (Homo sapiens, UniProt P35218).
T2 construct: gene CA5A; recombinant, in-house
T2 sequence (P35218 39-305): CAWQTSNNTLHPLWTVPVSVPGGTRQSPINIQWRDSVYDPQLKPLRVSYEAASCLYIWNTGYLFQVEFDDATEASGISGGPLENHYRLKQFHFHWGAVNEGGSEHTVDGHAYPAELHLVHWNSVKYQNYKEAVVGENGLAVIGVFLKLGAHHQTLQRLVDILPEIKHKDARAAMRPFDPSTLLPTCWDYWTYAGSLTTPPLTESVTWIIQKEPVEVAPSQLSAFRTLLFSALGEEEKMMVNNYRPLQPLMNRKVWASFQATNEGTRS
The source says:
stopped-flow CO2 hydrase assay on hCA VA

In another test the target is T3, hCA XII (Homo sapiens, UniProt O43570).
T3 construct: gene CA12; recombinant, in-house
T3 sequence (O43570 25-354): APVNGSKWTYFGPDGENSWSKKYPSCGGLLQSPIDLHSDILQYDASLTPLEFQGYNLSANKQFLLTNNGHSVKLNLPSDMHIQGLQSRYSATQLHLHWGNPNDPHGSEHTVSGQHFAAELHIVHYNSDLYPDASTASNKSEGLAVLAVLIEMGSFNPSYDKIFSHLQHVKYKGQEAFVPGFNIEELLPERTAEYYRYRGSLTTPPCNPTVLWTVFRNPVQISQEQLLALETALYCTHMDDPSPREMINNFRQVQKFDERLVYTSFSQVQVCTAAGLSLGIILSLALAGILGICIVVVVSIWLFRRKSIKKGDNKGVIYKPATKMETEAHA
The source says: stopped-flow CO2 hydrase assay on hCA XII

Another test deals with T4, hCA I (Homo sapiens, UniProt P00915).
T4 construct: gene CA1; recombinant, in-house
T4 sequence (P00915 2-261): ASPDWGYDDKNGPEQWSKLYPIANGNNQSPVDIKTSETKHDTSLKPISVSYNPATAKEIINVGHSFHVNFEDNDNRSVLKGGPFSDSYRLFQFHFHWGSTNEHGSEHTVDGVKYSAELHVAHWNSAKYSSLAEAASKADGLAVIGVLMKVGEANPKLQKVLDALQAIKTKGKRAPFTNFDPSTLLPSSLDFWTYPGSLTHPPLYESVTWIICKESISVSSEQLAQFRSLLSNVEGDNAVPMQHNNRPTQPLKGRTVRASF
The text has this:
stopped-flow CO2 hydrase assay on hCA I

The target in another test is T5, hCA VB (Homo sapiens, UniProt Q9Y2D0).
T5 construct: gene CA5B; recombinant, in-house
T5 sequence (Q9Y2D0 34-317): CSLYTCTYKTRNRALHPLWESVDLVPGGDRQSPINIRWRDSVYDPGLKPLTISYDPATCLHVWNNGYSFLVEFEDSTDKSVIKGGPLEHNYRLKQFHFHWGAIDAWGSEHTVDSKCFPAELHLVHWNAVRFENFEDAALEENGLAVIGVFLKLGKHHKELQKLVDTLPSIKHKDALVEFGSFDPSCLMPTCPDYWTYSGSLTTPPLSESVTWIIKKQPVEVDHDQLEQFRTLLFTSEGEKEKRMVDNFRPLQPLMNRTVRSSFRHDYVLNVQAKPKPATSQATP
The text has this:
stopped-flow CO2 hydrase assay on hCA VB

A further test has as its target T6, hCA IV (Homo sapiens, UniProt P22748).
T6 construct: gene CA4; recombinant, in-house
The source says: stopped-flow CO2 hydrase assay on hCA IV

The next test deals with T7, hCA II (Homo sapiens, UniProt P00918).
T7 construct: gene CA2; recombinant, in-house
The source says: stopped-flow CO2 hydrase assay on hCA II

For the next test, the target named is T8, hCA IX (Homo sapiens, UniProt Q16790).
T8 construct: gene CA9; recombinant, in-house
The text has this:
stopped-flow CO2 hydrase assay on hCA IX

The target in another test is T9, hCA XIV (Homo sapiens, UniProt Q9ULX7).
T9 construct: gene CA14; recombinant, in-house
T9 sequence (Q9ULX7 16-290 limits assumed): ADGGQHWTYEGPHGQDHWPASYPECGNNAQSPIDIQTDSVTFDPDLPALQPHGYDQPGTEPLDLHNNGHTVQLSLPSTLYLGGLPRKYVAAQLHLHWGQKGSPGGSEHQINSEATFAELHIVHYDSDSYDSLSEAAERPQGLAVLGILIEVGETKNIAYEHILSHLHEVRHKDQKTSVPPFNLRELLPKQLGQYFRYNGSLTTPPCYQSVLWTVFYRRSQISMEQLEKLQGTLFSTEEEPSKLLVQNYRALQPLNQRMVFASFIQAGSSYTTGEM
The source says: stopped-flow CO2 hydrase assay on hCA XIV

A further test has as its target T10, hCA VI (Homo sapiens, UniProt P23280).
T10 construct: gene CA6; recombinant, in-house
The source says:
stopped-flow CO2 hydrase assay on hCA VI

For a further test, the target named is T11, hCA XIII (Homo sapiens, UniProt Q8N1Q1).
T11 construct: gene CA13; recombinant, in-house
T11 sequence (Q8N1Q1 whole entry): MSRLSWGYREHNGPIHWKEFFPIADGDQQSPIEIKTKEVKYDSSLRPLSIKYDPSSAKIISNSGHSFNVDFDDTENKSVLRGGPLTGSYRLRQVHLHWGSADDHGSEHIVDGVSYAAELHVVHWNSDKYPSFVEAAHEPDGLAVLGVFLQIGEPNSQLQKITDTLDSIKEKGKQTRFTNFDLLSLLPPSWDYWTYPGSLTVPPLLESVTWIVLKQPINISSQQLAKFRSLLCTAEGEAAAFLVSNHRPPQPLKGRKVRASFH
The text has this: stopped-flow CO2 hydrase assay on hCA XIII

T6 sequence (P22748 19-284): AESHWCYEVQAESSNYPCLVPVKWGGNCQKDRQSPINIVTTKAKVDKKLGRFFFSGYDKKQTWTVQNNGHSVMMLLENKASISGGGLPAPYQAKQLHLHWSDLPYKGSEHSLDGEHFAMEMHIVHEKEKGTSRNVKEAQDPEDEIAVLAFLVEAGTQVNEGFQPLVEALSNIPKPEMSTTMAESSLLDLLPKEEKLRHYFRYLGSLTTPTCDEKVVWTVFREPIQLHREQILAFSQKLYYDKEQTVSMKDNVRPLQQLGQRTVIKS
T10 sequence (P23280 18-308): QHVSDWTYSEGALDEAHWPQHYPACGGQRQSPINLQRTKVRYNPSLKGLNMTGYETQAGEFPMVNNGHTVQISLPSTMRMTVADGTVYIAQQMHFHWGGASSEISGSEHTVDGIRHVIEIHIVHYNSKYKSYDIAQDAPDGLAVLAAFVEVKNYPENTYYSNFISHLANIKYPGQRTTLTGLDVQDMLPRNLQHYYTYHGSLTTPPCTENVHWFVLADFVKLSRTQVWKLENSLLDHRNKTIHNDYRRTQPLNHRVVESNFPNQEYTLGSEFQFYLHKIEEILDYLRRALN
T1 sequence (P43166 whole entry): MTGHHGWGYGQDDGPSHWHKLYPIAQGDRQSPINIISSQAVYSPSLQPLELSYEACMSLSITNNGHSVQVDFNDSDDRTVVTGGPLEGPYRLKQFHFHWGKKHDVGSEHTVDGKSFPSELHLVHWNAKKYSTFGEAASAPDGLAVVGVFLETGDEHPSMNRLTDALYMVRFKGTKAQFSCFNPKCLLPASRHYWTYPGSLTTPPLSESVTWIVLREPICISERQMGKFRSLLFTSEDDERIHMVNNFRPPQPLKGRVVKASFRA

In the case of `Cc1cnc(C(=O)O)c[n+]1[O-]` [compound 1, Acipimox], the Ki on hCA VII amounted to 9.2 µM; on hCA VA it was 7.5 µM; at hCA XII, 8.4 µM; at hCA I, 3.3 µM; on hCA VB, 2.8 µM; on hCA IV, 8.8 µM. The Ki on hCA II was determined as 7.5 µM; on hCA IX it was 6.3 µM; at hCA XIV, 5.9 µM; on hCA VI it was 7 µM; on hCA XIII, 87 µM.
